# Data as given in US20240285497A1, “METHOD FOR EVALUATING AN ABILITY OF A TEST SAMPLE TO TRIGGER A FOREIGN BODY REACTION IN THE SKIN, A METHOD FOR SCREENING A SUBSTANCE HAVING AN ABILITY TO INHIBIT A FOREIGN BODY REACTION IN THE SKIN, AND AN AGENT FOR INHIBITING A FOREIGN BODY REACTION IN THE SKIN” (priority 2021, published 2024).
# Experiments:
# XRE-NLuc::HaCaT cells = assay: in vitro; conditions: read-out: LC50; XRE-NLuc::HaCaT cells, median lethal concentration
# Description: After the above-described incubation for 24 hours, the number of cells in each well was counted by a colorimetric method based on the degradation of tetrazolium salt (WST-1) by mitochondrial dehydrogenase in viable cells. Specifically, 3 μL of Premix WST-1 (Product Name “Premix WST-1 Cell Proliferation Assay System”; Takara Bio Inc., Shiga, Japan; Catalogue No.: MK400) was added to each well of 96 well plates, and then the cells were cultured for 1 hour at 37° C., 5% CO2. Thereafter, 93 μL of cell culture supernatant was removed from each well to measure the absorbance of the supernatant in each well. The removed supernatants were transferred to transparent 96 well plates, and then the absorbance at 450 nm (A450) and, as a reference wavelength, the absorbance at 670 nm (A670) were measured using iMark microplate reader (Bio-Rad; Catalogue No.: 168-1130JA). A value (A450-A670) was obtained by subtracting the absorbance at 670 nm (A670) from the absorbance at 450 nm (A450). The relative viable cell count (%) was expressed as a relative value with the value (A450-A670) obtained for the negative control as 100%.
# The ability of each test sample to trigger a foreign body reaction was evaluated using XRE-NLuc::HaCaT cells in the same manner as in Experiment 1-2, except that I3C (Indole-3-carbinol, CAS RN: 700-06-1), ITE (2-(1′H-indole-3′-carbonyl)-thiazole-4-carboxylic acid methyl ester, CAS RN: 448906-42-1), and Indirubin (CAS RN: 479-41-4) were used instead of FICZ as test samples and the amount of each test sample added to the DMEM medium was appropriately changed.
# artemin mRNA = assay: Inhibition of FICZ-induced artemin mRNA expression in HaCaT cells, quantitative PCR; assay type: cell-based, human
# Description: First, HaCaT cells (CLI; Catalogue No.: 300493) were suspended in a DMEM medium at the density of 1×10^5 cell/mL, and 100 μL of the thus obtained suspension was added to each well of white 96-well plates (Thermo Fisher Scientific, MA, U.S.A.; Catalogue No.: 136102) so that the number of the cells in each well was 10,000 cells/well. In accordance with the conventional method, the cells were incubated for 24 hours at 37° C. and 5% CO2. Thereafter, the DMEM medium was removed, and 100 μL of a new DMEM medium containing both FICZ at predetermined concentration (500 nM or 5,000 nM) and Fraglide-1 at a predetermined concentration (0 nM or 250 nM). After incubation for 24 hours at 37° C. and 5% CO2, the total RNA was extracted, cDNA was prepared, and quantitative PCR was carrier out using the obtained cDNA in the same manner as described in Experiment 2. In FIG. 7, the results obtained for each sample were shown as a relative value, with the expression level of artemin mRNA in HaCaT cells incubated 24 hours in DMEM medium containing neither FICZ nor Fraglide-1 set to 1.
# As described above, Fraglide-1 inhibited production of artemin induced by FICZ. Then, the following experiment was conducted in order to quantitatively evaluated the effect of inhibiting artemin production exerted by Fraglide-1. Briefly, HaCaT cells were treated with FICZ and Fraglide-1 in the same manner as in Experiment 3-1 except that the concentration of FICZ was set to 5,000 nM and the concentration of Fraglide-1 was set to 0 μM, 0.01 μM, 0.1 μM, 1 μM, 10 μM, and 100 µM, and then the total RNA was extracted, cDNA was prepared, and quantitative PCR was carried out. Based on the obtained result, the inhibition rate (Inhibition (%)) of the artemin mRNA expression triggered by FICZ when a given concentration of Fraglide-1 was added to the cell culture medium together with 5,000 nM of FICZ was calculated in accordance with the following formula. […]
# HaCaT cells = assay: Safety evaluation: cell viability of HaCaT cells by WST-1 method; assay type: cell-based, human; conditions: 24 hours
# Description: The safety of Fraglide-1 was examined by a viable cell counting method using a water-soluble tetrazolium salt (WST-1). Specifically, HaCaT cells were suspended in DMEM medium at the concentration of 1×10^5 cells/mL. The obtained cell suspension was seeded in a white 96-well plate (ThermoFisher Scientific; Catalogue No. 136102) in an amount of 100 μL per well so that the number of cells per well was 10,000 cells/well. After 24 hours incubation at 37° C. and 5% CO2 in accordance with a conventional method, DMEM medium was removed and then either 100 μL of DMEM medium containing Fraglide-1 at a predetermined concentration or, as a control, 100 μL of DMEM medium not containing Fraglide-1 was added, followed by further incubation for 24 hours at 37° C. and 5% CO2. After the incubation for 24 hours, the number of viable cells was measured by using a premix reagent containing WST-1 (“Premix WST-1 Cell Proliferation Assay System”, Catalogue No. MK400, Takara Bio Inc., Shiga, Japan) in accordance with the procedure described in Experiment 1-2. The results shown in FIG. 16 are the mean of values obtained from three independent experiments, and the error bars represent standard error (SE).
Molecule,CC50 (XRE-NLuc::HaCaT cells) [µM],"Inhibition (%) of artemin mRNA expression triggered by FICZ (artemin mRNA; 100 nM (0.1 μM) Fraglide-1, 5,000 nM FICZ)","expression level of artemin mRNA compared to cells without FICZ (artemin mRNA; 250 μM Fraglide-1 plus 500 nM or 5,000 nM FICZ, 24 hours)","inhibition of FICZ-induced expression of artemin, dependence on concentration (artemin mRNA; Fraglide-1 0.01-100 μM, 5,000 nM FICZ)","cell viability (HaCaT cells; 500 μM, HaCaT cells)",CC50 (HaCaT cells; read-out: LC50 (Median Lethal Concentration) against HaCaT cells) [µM]
"6-formylindolo[3,2-b] carbazole [FICZ]",> 5,,,,,
"O=C1C=C(c2ccccc2)C(O)O1 (stereo not drawn) [Fraglide-1, 5-hydroxy-4-phenyl-2(5H)butenolide]",,approximately 50%,no increase in the expression level of artemin mRNA was observed,in the concentration dependent manner,more than 50%,> 500
